The test system of data set [1] is HBV. Nature of the data set: Determination of HBV DNA from the supernatants of HepAD38 cells (anti-HBV activity). Format: cell-based, hepatitis B virus. To be noted: HBV DNA in HepAD38 supernatant, day 6, qPCR, read-out: Cell Activity (EC50). The gist of the method:
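HepAD38 cells, tetracycline withdrawn to induce HBV, treated with serial half-log compound dilutions; on day 6 HBV DNA purified from filtered supernatant and quantified by real-time PCR against HBV plasmid standards; EC50 from relative copy numbers by non-linear regression, three experiments in triplicate.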

The subject of data set [2] is HepAD38 cells. In words: Cell viability assay (AlamarBlue) in HepAD38 cells. To be noted: HepAD38 cells with 0.3 μg/ml tetracycline, six days incubation, AlamarBlue.
In data set [3] the target is T1, HBV core protein (UniProt P03146).
T1 construct: fused on or other part: BODIPY-FL maleimide label on the C-terminal Cys150
In words: Biochemical capsid assembly assay (fluorescence quenching). The arrangement: species or system hepatitis B virus. Put shortly: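 Purified E. coli-expressed HBV core protein (aa 1-149 plus Cys150), BODIPY-FL maleimide-labelled, at 1.0-2.0 μM in 50 mM HEPES pH 7.5 with 0.5% DMSO was used. Compounds were tested at 8 concentrations (0.5-log dilutions from 100, 31.6 or 10 μM). Assembly was started with NaCl ([…]), and fluorescence quenching was read after 6 min (ex 477/em 525 nm). EC50 was determined by non-linear regression.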

Data set [4] is described as follows: Cell viability assay (AlamarBlue) in HepAD38 cells. The note with it: human.
Where [5] appears, read: BODIPY-FL labelled core protein, 300 μM NaCl, read 6 min after start; read-out: Assembly Activity (IC50).
The mark [6] stands for this setting: read-out: Assembly Activity (IC50); BODIPY-FL labelled core protein, 300 μM NaCl, read 6 min after start.

Read-outs that look alike come from different tables or passages of the source.

T1 sequence (P03146 whole entry, looked up, the tested form may be a part): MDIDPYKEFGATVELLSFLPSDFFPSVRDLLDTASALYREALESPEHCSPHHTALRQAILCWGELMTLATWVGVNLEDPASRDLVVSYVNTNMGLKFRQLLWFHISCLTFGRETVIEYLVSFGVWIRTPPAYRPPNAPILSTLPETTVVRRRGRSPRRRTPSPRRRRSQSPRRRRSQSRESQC

One may read the EC50 as the concentration that produces a half-maximal response. The term CC50 denotes the concentration at which the toxic effect on the cells reaches its halfway point. Low readings indicate greater toxicity to the cells, high ones lower toxicity to the cells. With “3-{1-[5-(1H-indole-2-carbonyl)-2H,4H,5H,6H,7H-pyrazolo[4,3-c]pyridin-3-yl]-N-methylformamido}-N-methanesulfonylpropanamide [Example 244]”, in data set [1], the EC50 was below 100 µM. This compound also yielded a CC50 in data set [2] above 10 µM.
A word on the IC50: it is the concentration that gives 50% inhibition. Regarding “5-(4-chloro-5-fluoro-1H-indole-2-carbonyl)-N-[1-(methoxymethyl)cyclopropyl]-N-methyl-1H,4H,5H,6H,7H-pyrazolo[4,3-c]pyridine-3-carboxamide [Example 268]”, in data set [1], the EC50 was below 1 µM. Besides, in data set [2], the CC50 was above 10 µM. Further, the IC50 in data set [3] (setting [5]) is below 5 µM.
The corresponding values for “5-[4-(1,1-difluoroethyl)-1H-indole-2-carbonyl]-N-[1-(methoxymethyl)cyclopropyl]-N-methyl-1H,4H,5H,6H,7H-pyrazolo[4,3-c]pyridine-3-carboxamide [Example 301]” are below 1 µM, above 10 µM and below 5 µM.
With `CN(C(=O)c1n[nH]c2c1CN(C(=O)c1cc3ccccc3[nH]1)CC2)C1(COCC(F)F)CC1` [Example 360, N-{1-[(2,2-difluoroethoxy)methyl]cyclopropyl}-5-(1H-indole-2-carbonyl)-N-methyl-1H,4H,5H,6H,7H-pyrazolo[4,3-c]pyridine-3-carboxamide], the EC50 in data set [1] (Hepatitis B virus, 144 h) was below 1 µM. This compound returned a CC50 at 6 days in data set [4] above 10 µM. In addition, the IC50 in data set [3] (setting [6]) was below 5 µM.
The corresponding values for `CN(C(=O)c1n[nH]c2c1CN(C(=O)c1cc3ccccc3[nH]1)CC2)C1(CC#N)CC1` [Example 361, N-[1-(cyanomethyl)cyclopropyl]-5-(1H-indole-2-carbonyl)-N-methyl-1H,4H,5H,6H,7H-pyrazolo[4,3-c]pyridine-3-carboxamide] are 1 to 25 µM, above 10 µM and below 5 µM.
The like results for `CCOCC1(N(C)C(=O)c2[nH]nc3c2CN(C(=O)c2cc4c(F)cc(F)cc4[nH]2)CC3)CC1` [Example 363, 5-(4,6-difluoro-1H-indole-2-carbonyl)-N-[1-(ethoxymethyl)cyclopropyl]-N-methyl-2H,4H,5H,6H,7H-pyrazolo[4,3-c]pyridine-3-carboxamide] were, in that order, below 1 µM, above 10 µM and below 5 µM.
The corresponding values for `CCOCC1(N(C)C(=O)c2[nH]nc3c2CN(C(=O)c2cc4c(Cl)c(F)ccc4[nH]2)CC3)CC1` [Example 364, 5-(4-chloro-5-fluoro-1H-indole-2-carbonyl)-N-[1-(ethoxymethyl)cyclopropyl]-N-methyl-2H,4H,5H,6H,7H-pyrazolo[4,3-c]pyridine-3-carboxamide] are below 1 µM, above 10 µM and below 5 µM.
Regarding `CCOCC1(N(C)C(=O)c2[nH]nc3c2CN(C(=O)c2cc4c(Cl)cc(F)cc4[nH]2)CC3)CC1` [Example 365, 5-(4-chloro-6-fluoro-1H-indole-2-carbonyl)-N-[1-(ethoxymethyl)cyclopropyl]-N-methyl-2H,4H,5H,6H,7H-pyrazolo[4,3-c]pyridine-3-carboxamide], in data set [1] (Hepatitis B virus, 144 h), the EC50 is below 1 µM. The same compound returned a CC50 at 6 days in data set [4] above 10 µM. Moreover, the IC50 in data set [3] (setting [6]) was below 5 µM.
The corresponding values for `CCOCC1(N(C)C(=O)c2[nH]nc3c2CN(C(=O)c2cc4c(C)cc(F)cc4[nH]2)CC3)CC1` [Example 366, N-[1-(ethoxymethyl)cyclopropyl]-5-(6-fluoro-4-methyl-1H-indole-2-carbonyl)-N-methyl-2H,4H,5H,6H,7H-pyrazolo[4,3-c]pyridine-3-carboxamide] are below 1 µM, above 10 µM and below 5 µM.
The corresponding values for `CCOCC1(N(C)C(=O)c2[nH]nc3c2CN(C(=O)c2cc4cccc(F)c4[nH]2)CC3)CC1` [Example 367, N-[1-(ethoxymethyl)cyclopropyl]-5-(7-fluoro-1H-indole-2-carbonyl)-N-methyl-2H,4H,5H,6H,7H-pyrazolo[4,3-c]pyridine-3-carboxamide] are below 1 µM, above 10 µM and below 5 µM.
In the case of `CN(C(=O)c1[nH]nc2c1CN(C(=O)c1cc3ccccc3[nH]1)CC2)C1(c2cocn2)CC1` [Example 368, 5-(1H-indole-2-carbonyl)-N-methyl-N-[1-(1,3-oxazol-4-yl)cyclopropyl]-2H,4H,5H,6H,7H-pyrazolo[4,3-c]pyridine-3-carboxamide], the EC50 in data set [1] (Hepatitis B virus, 144 h) was below 1 µM. In data set [4], this compound came in with a CC50 at 6 days above 10 µM. In data set [3] (setting [6]), the IC50 is below 5 µM.
Turning to “N-(2,3-dihydroxypropyl)-5-(1H-indole-2-carbonyl)-N-methyl-2H,4H,5H,6H,7H-pyrazolo[4,3-c]pyridine-3-carboxamide [Example 253]”, the EC50 in data set [1] lay in the range of 1 to 25 µM. This compound yielded a CC50 in data set [2] above 10 µM. For the same compound, the IC50 in data set [3] (setting [5]) was in the range of 5 to 10 µM.
Take “N-[1-(methoxymethyl)cyclopropyl]-N-methyl-5-(4-methyl-1H-indole-2-carbonyl)-1H,4H,5H,6H,7H-pyrazolo[4,3-c]pyridine-3-carboxamide [Example 260]”: the half-maximal effective concentration (EC50) in data set [1] is below 1 µM. For the same compound, the CC50 in data set [2] was above 10 µM. Moreover, the 50% inhibitory concentration (IC50) in data set [3] (setting [5]) is below 5 µM.
Regarding “N-ethyl-5-(1H-indole-2-carbonyl)-N-(2-methoxyethyl)-1H,4H,5H,6H,7H-pyrazolo[4,3-c]pyridine-3-carboxamide [Example 294]”, the EC50 in data set [1] was below 1 µM. The CC50 in data set [2] was above 10 µM. For the same compound, the IC50 in data set [3] (setting [5]) is 5 to 10 µM.
Turning to “tert-butyl N-(2-{1-[5-(1H-indole-2-carbonyl)-2H,4H,5H,6H,7H-pyrazolo[4,3-c]pyridin-3-yl]-N-methylformamido}ethyl)carbamate [Example 281]”, the EC50 in data set [1] lay within 1 to 25 µM. The CC50 in data set [2] was above 10 µM. The IC50 in data set [3] (setting [5]) was below 100 µM.

For the origin of these results see patent US11236087B2, “Highly active pyrazolo-piperidine substituted indole-2-carboxamides active against the hepatitis B virus (HBV)” (AiCuris GmbH & Co. KG, priority 2017, dated 2022).
